# Results published in patent US7550438B2, “Methods for production of growth-promoting proteins and peptides for kidney epithelial cells” (The University of Chicago, priority 1997, dated 2009).
# Values joined by “and” are separate entries in the source; they are usually repeats but may differ in a detail not shown here. Equal entries are not always repeated. “Also recorded” adds a separate entry of the source. Where two headings read alike, the source gives them in different places. No end group written: not given here.
# B1: TGF-β2: autocrine growth inhibitor secreted by BSC-1 cells (protein, UniProt P61811 303-414, looked up)
# Transforming growth factor …: ALDAAYCFRNVQDNCCLRPLYIDFKRDLGWKWIHEPKGYNANFCAGACPYLWSSDTQHSRVLSLYNTINPEASASPCCVSQDLEPLTILYYIGKTPKIEQLSNMIVKSCKCS
# Key:
# BSC-1 cells [1] = experiment: Time of contact with cells required to commit them to accelerated growth (washout, count at four days); assay type: cell-based, African green monkey; settings: for exposure time sufficient for maximal growth stimulation (commitment time): peptide then washed off, cells counted four days later
# Method: Confluent monolayers of BSC-1 cells are prepared as herein and exposed to the 14-Ser peptide (0.5 μg/ml) for different amounts of time (0 to 30 minutes). At the end of the defined exposure period, culture medium containing the mitogen was aspirated, the monolayer was rinsed to remove non-adherent peptide, and fresh medium was added. Four days later the number of cells in the culture was counted.
# In these experiments a solution containing the peptide of interest was added to the cell monolayer; culture medium was then aspirated at a specified time thereafter. Then fresh medium without the peptide was added and the number of cells was counted four days later.
# [2] = tested on: monkey kidney epithelial cells of the BSC-1 line; experiment: Growth-promoting (mitogenic) activity: number of cells in BSC-1 cultures counted four days after addition; assay type: cell-based, African green monkey; settings: for stimulation of growth (increase in cell number compared to control at four days): agent alone at maximal mitogenic concentration (14-Ser 0.5 μg/ml; EGF, IGF-I 50 ng/ml; acidic FGF 100 pg/ml; basic FGF 1,000 pg/ml; vasopressin 75 pg/ml; K 10.4 mM; Na 180 mM); for stimulation of growth in the presence of the 14-Ser peptide: mitogenic signal at maximal concentration plus 14-Ser peptide 0.5 μg/ml; for stimulation of growth in the presence of the 14-Ser peptide / mitogenic activity on BSC-1 cells (in words): four days; for EC50: read-out: Growth-Stimulation K½; for mitogenic activity on BSC-1 cells (in words): peptide 0.5 to 20 μg/ml
# Method: For the assay, cells were detached from the dish with a solution of trypsin and an aliquot was counted in a hemocytometer.
# Nontransformed monkey kidney epithelial cells of the BSC-1 line were grown to confluence in Dulbecco's modified Eagle's medium containing 1% calf serum and […] in 55-mm culture dishes at 38° C. in a CO2 incubator. When cells achieved a density of about 10^6 per dish, the spent medium was removed and replaced with fresh medium containing 0.5% calf serum and the 14-amino acid peptide (0.5 μg/ml). Additions of each of the mitogenic signals at maximal concentration were made to the culture medium. Four days later the number of cells in each culture was counted in a hemocytometer. Values obtained were the mean of 3 separate cultures.
# Nontransformed monkey kidney epithelial cells of the BSC-1 line were grown to confluence in Dulbecco's modified Eagle's medium containing 1% calf serum and 1.6 μM biotin at 38° C. in a CO2 incubator. When cells achieved a density of about 10^6 per dish, the spent medium was removed and replaced with fresh medium containing 0.5% calf serum and different amounts of the two peptides. Four days later the number of cells in each culture was counted. Each value is the mean of 3 separate cultures.
# To delineate the sequence of the smallest peptide that could stimulate renal cell growth, synthetic peptides of different lengths were prepared (see below), and purified by reversed-phase HPLC on a C18 column.
# The peptide of interest was then purified on a reversed-phase C18 column HPLC as described herein using a gradient of 1-80% acetonitrile in 0.1% trifluroacetic acid (TFA). The purified peptide was then lyophilized to remove the acetonitrile and TFA and the lyophilized powder was weighed, dissolved in buffer and added to the culture medium to measure its effect on the growth of monkey kidney epithelial cells as described herein. […] A value termed the K1/2, was used.
# [3] = tested on: rats with mercuric chloride-induced acute renal failure; experiment: Mercuric chloride-induced acute renal failure in rats: survival and renal function; assay type: in vivo, rat
# Description: Nephrotoxic and ischemic acute renal failure (ARF) induced experimentally in rats have long been used to model this syndrome in humans. […] Male rats weighed 200-225 gm at the start of the experiment. This dose was used because preliminary experiments indicated it results in survival of 25-50% of the animals 7 days later. […] An increase in serum creatinine concentration signals a decline in renal function because the injured kidney is unable to excrete endogenous creatinine in the urine so it accumulates in the blood.
# The synthetic peptide […] (14-Ser) (SEQ ID NO: 15) (dissolved in sterile 0.01% bovine serum albumin in phosphate-buffered saline) was injected subcutaneously into rats to determine its effect on survival, recovery of renal fucntion, and stimulation of DNA synthesis. Multiple different peptides were studied including 14-Ser, […] (14-mer) (SEQ ID NO: 39), […] (16-mer) (SEQ ID NO: 4) […] (11-mer) (SEQ ID NO: 6), and […] (11-mer) (SEQ ID NO: 41). Different concentrations and times of administration were tested and compared.
# Acute tubular necrosis was induced in 44 rats by the subcutaneous (s.c.) injection of mercuric chloride, and a single dose of 14-ser was administered s.c. 1 hour afterwards. Different amounts of the peptide were given to assesses its capacity to affect the outcome. Survival 7 days later was about twice as high in animals given 100-150 μg of peptide (63%) than in rats given 0-75 μg peptide (29%).
# To determine the effect of the peptide on survival and recovery of renal function, acute tubular necrosis was induced in 59 rats; 29 received 14-Ser (100 μg/rat) and 30 received an equal volume of the vehicle s.c. 1 hour after administration of mercuric chloride. Enhanced survival (top panel) and renal functional recovery (bottom panel) of rats give a WGF-derived peptide after mercuric chloride-induced acute tubular necrosis are shown in FIG. 2A and FIG. 2B. Mercuric chloride was injected subcutaneously into each of the 59 rats, and 1 hour later 100 μg of WGF peptide (14-Ser) (n=29 rats) or the vehicle […] was given. Survival was greater in rats given the peptide than in animals receiving the vehicle as early as day 3 after administration of mercuric chloride. Blood was obtained from the tail vein on the days indicated, and serum creatinine concentration was measured. […] On days 2, 3 and 4, the lower creatinine concentration in peptide-treated rats indicates accelerated recovery of kidney function.
# Experimental ARF was induced in rats by subcutaneous injection of mercuric chloride. The synthetic peptide […] […] In one experiment a total of 17 rats were injected with a dose of mercuric chloride shown to induce ARF. The different amounts of the peptide (known to stimulate growth of kidney cells in culture) were injected into the animals to assess capacity to improve the outcome. […] In contrast, two of three rats given 100 micrograms of peptide were alive, as were five of six given 200 micrograms. In summary, none of eight rats (0%) given up to 50 micrograms of peptide survived, whereas seven of nine (78%) given 100-200 micrograms did. Thus, the 11-mer WGF peptide improves survival in nephrotoxic ARF.
# […] Four days later, 63% of rats given the 14-Ser peptide were alive compared to 25% of animals receiving the vehicle (chi squared, P-0.0499); 50% of rats receiving EGF were alive (chi squared, P=N.S.). On day 5, 50% of rats given EGF were alive, compared to 12.5% of animals given the vehicle (chi squared, P=0.0436). […] These observations indicate that the 14-Ser peptide and EGF given after renal injury are similar in their ability to improve survival from the ARF syndrome.
# BSC-1 cells [4] = experiment: Inhibition of WGF and WGF-derived peptide mitogenesis in BSC-1 cells; assay type: cell-based, African green monkey; settings: for effect of pentamer on growth stimulation by hexamer YPQGNH: pentamer added to culture medium, hexamer added at the same time or afterwards
# Description: In these studies the pentamers, PQGNH (SEQ ID NO: 36) or YPQGN (SEQ ID NO: 3) were synthesized, purified by HPLC and then assayed for growth-promoting activity. […] Because the pentamers are not mitogenic, when they bind to the site, growth is not observed. After pentamers are bound to the site, the pentamers appear to prevent the hexapeptide from gaining access to the membrane.
# Transforming growth factor (TGF)-β2 is an autocrine growth inhibitor secreted by BSC-1 cells that limits proliferation in culture. Exogenous TGF-β2 was added to the culture medium to determine its capacity to inhibit the growth-promoting effect of 14-Ser. TGF-β2 at a concentration of 1 ng/ml was sufficient to abolish the 25% stimulation of growth induced by 14-Ser. At a TGF-β2 concentration of 2 ng/ml, growth was inhibited by 30% in the presence or absence of 14-Ser; at 10 ng/ml, inhibition was 60%.
# Because TGF-β2 inhibits proliferation induced by diverse mitogens, a more specific inhibitor was sought. […] Cells were preincubated for 30 minutes with the pentapeptide YPQGN (SEQ ID NO: 3). The culture medium was then aspirated, the monolayer was rinsed, fresh medium was added, and the number of cells counted 4 days later. Preincubation of cells with YPQGN (SEQ ID NO: 3) inhibited the mitogenic effect of the 6-amino acid peptide.
# [5] = peptide alone, BSC-1 cells, 4 days in culture
molecule,measurement,setting,value
"Nc1ncnc2c1ncn2[C@@H]1O[C@H](COP(=O)(O)O)[C@@H](O)[C@H]1O [adenosine monophosphate, reference compound]",commitment time,BSC-1 cells [1],14 h
"[Cl-].[K+] [potassium chloride, reference compound]",stimulation of growth (increase in cell number compared to control at four days),[2],18%
same,stimulation of growth in the presence of the 14-Ser peptide,[2],35%
"[Cl-].[Na+] [sodium chloride, reference compound]",stimulation of growth (increase in cell number compared to control at four days),[2],25%
same,stimulation of growth in the presence of the 14-Ser peptide,[2],41%
"NC(=O)CC[C@@H]1NC(=O)[C@H](Cc2ccccc2)NC(=O)[C@H](Cc2ccc(O)cc2)NC(=O)[C@@H](N)CSSC[C@@H](C(=O)N2CCC[C@H]2C(=O)N[C@@H](CCCN=C(N)N)C(=O)NCC(N)=O)NC(=O)[C@H](CC(N)=O)NC1=O [vasopressin, reference compound]",stimulation of growth (increase in cell number compared to control at four days),[2],14%
same,stimulation of growth in the presence of the 14-Ser peptide,[2],36%
same,exposure time sufficient for maximal growth stimulation (commitment time),BSC-1 cells [1],2 min
AQPYPEGNHEA,EC50,[2]; [5],206 nM
same,rats dead three days later,[3]; 50 micrograms s.c. two hours after mercuric chloride,three of three
same,survival three days later,"[3]; 100-200 micrograms of peptide, nine rats",78%
same,rats alive three days later,[3]; 100 micrograms s.c. two hours after mercuric chloride,two of three
same,rats alive three days later,[3]; 200 micrograms s.c. two hours after mercuric chloride,five of six
same,survival three days later,"[3]; up to 50 micrograms of peptide (incl. saline alone), eight rats",0%
AQPYPEGNHEASYG,EC50,[2]; [5],128 nM
AQPYPQGNHEAAYG,EC50,"[2]; + keratan sulfate (2 μg/ml for 5 minutes prior to peptide, b158; 10 μg/ml)",54 nM
same,EC50,[2]; [5],199 nM
AQPYPQGNHEAQPYPQGNHEAQPYPQGNHEAQPYPQGNHE,EC50,[2]; [5],7 nM
same,exposure time sufficient for maximal growth stimulation (commitment time),BSC-1 cells [1],behaved similarly
AQPYPQGNHEATSSSF,EC50,[2]; [5],218 nM
FPEGNH,EC50,[2]; [5],2720 nM
"MAPS peptide: 11-mer AQPYPQGNHEA linked to a branched polylysine core, four branches each ligated to one 11-mer molecule (also: four copies linked to a branched polylysine core (MAPS))",mitogenic activity on BSC-1 cells (in words),[2],stimulated DNA synthesis and proliferation
PQGNH,mitogenic activity on BSC-1 cells (in words),[2],Neither was mitogenic; also recorded: do not alter growth
same,effect of pentamer on growth stimulation by hexamer YPQGNH,BSC-1 cells [4],blocked
Pentosan polysulfate [reference compound],effect on activity of WGF,BSC-1 cells [4],blocked
QPYPQG,mitogenic activity on BSC-1 cells (in words),[2],not mitogenic
"WAVGHLM [WAVGHLM-amide, reference compound]",EC50,[2]; [5],~10000 nM
YPEGDH,EC50,[2]; [5],11000 nM
YPEGKH,EC50,[2]; [5],14100 nM
YPEGNH,EC50,[2]; [5],301 nM
same,exposure time for maximal mitogenic effect after keratan sulfate pretreatment,BSC-1 cells [1]; cells exposed to keratan sulfate 2 μg/ml for 5 minutes before peptide,1.5 min
same,exposure time sufficient for maximal growth stimulation (commitment time),BSC-1 cells [1],3 min
YPQGN,mitogenic activity on BSC-1 cells (in words),[2],Neither was mitogenic; also recorded: do not alter growth
same,effect of preincubation on mitogenic effect of partially-purified Wound Growth Factor,BSC-1 cells [4],completely abolished
same,effect of preincubation on mitogenic effect of the 6-amino acid peptide YPQGNH,"BSC-1 cells [4]; cells preincubated 30 minutes, rinsed, count 4 days later",inhibited
same,effect of pentamer on growth stimulation by hexamer YPQGNH,BSC-1 cells [4],blocked
same,effect of preincubation on growth-promoting effect of the 14-Ser peptide,BSC-1 cells [4]; preincubation for 10 or 30 minutes,completely blocked
YPQGNH [NH2-tyrosine-proline-glutamine-glycine-asparagine-histidine-COOH],EC50,[2]; [5],352 nM and 332 nM
YPQGNH [YPQGNH-amide],EC50,[2]; [5],8850 nM
YPQGNHEASYG,EC50,[2]; + heparin (1 μg/ml),166 nM
same,EC50,[2]; [5],166 nM
YPRGNH [reference compound],stimulation of growth (increase in cell number compared to control at four days),[2],10%
same,mitogenic activity on BSC-1 cells (in words),[2],not mitogenic to the same extent
"acidic fibroblast growth factor [acidic FGF, reference compound]",concentration equivalent in mitogenic potency to partially-purified WGF,[2],0.02 ng/mL
same,effect of keratan sulfate on mitogenic activity,[2],no effect
same,stimulation of growth (increase in cell number compared to control at four days),[2],17%
same,effect of heparin on mitogenic activity,[2]; heparin added to BSC-1 cells with the factor,inhibits
same,combined mitogenic effect with WGF (additivity),"[2]; maximal concentrations, 11-mer with wound conditioned buffer",additive
same,stimulation of growth in the presence of the 14-Ser peptide,[2],44%
"insulin-like growth factor-I [IFG-I, reference compound]",stimulation of growth (increase in cell number compared to control at four days),[2],20%
same,stimulation of growth in the presence of the 14-Ser peptide,[2],38%
B1,effect on the 25% stimulation of growth induced by 14-Ser,BSC-1 cells [4]; TGF-β2 1 ng/ml,abolish
same,growth inhibition,"BSC-1 cells [4]; TGF-β2 2 ng/ml, in the presence or absence of 14-Ser",30%
same,growth inhibition,BSC-1 cells [4]; TGF-β2 10 ng/ml,60%
